{"source": "patent US20150216955A1", "about": "“IMMUNOMODULATORY AGENT AND USES THEREFOR” (The University of Queensland, priority 2012, published 2015)", "key": {"[1]": {"system": "antigen-presenting cells (APC)", "assay": "Pre-incubation of APC with NF-kB, mTOR or Syk inhibitors; T cell cytokine production in response to citrullinated aggrecan peptide", "format": "cell-based, human", "details": "APC pre-incubated 1 h with inhibitor, then LPS; 5 days with CD4+ T cells and 3 or 30 μg/mL Aggrecan peptide 84-103 cit 93", "method": "Peripheral blood mononuclear cells (PBMC) were extracted from an RA patient with disease duration 18 years, positive anti-CCP and HLA-DRB1*0401 shared epitope. Autologous CD4+ T cells were isolated using immunomagnetic beads. The non-T cell fraction consists of antigen-presenting cells (APC), including dendritic cells, monocytes and B cells; it was treated with Mitomycin C to prevent proliferation. The APC were pre-incubated for 1 h without or with 3 uM BAY7011-82, 20 μg/mL Curcumin (both inhibit NF-kB), 10 ng/mL Rapamycin (inhibits mTOR) or […] Piceatannol (inhibits syk), then incubated with 100 ng/mL LPS for 1 h. The APC were washed 3 times then incubated for 5 days with CD4+ T cells in the presence of 0 μg/mL, 3 μg/mL or 30 μg/mL Aggrecan peptide 84-103 cit 93. Cytokines were analysed in culture supernatants by cytokine bead array."}, "[2]": {"assay": "Solubility of peptide in aqueous medium", "format": "physicochemical"}, "PBMC": {"system": "PBMC", "assay": "Cytokine secretion in day 5 supernatants by Cytometric Bead Array (CBA) after peptide stimulation", "format": "cell-based, human", "details": "for cytokine responses to the epitope: current studies, fibrinogen: long-standing RA patients; for number of RA patients with positive IL-6 response to this epitope only: of 17 RA patients, threshold mean + 2 SD above native peptide response"}, "CD4+ T cells": {"system": "CD4+ T cells", "assay": "Flow cytometry and intracellular cytokine staining after peptide stimulation", "format": "cell-based, human", "method": "FIG. 6 is a graphical representation showing cytokine secretion by CD4^+ T cell subsets. PBMC from HLA-DR SE^+ RA patients and healthy controls were incubated with 0 or 30 μg/ml citrullinated fibrinogen or citrullinated aggrecan, stained with mAb directed against CD4, CD28, IFN-γ and IL-6 (A), or CD4, CD45RO, IL-6 and IFN-γ (E) then analyzed by flow cytometry. B: The gating strategy is outlined. C: Fluorescence minus one (FMO) plot showing background staining for intracellular cytokine staining, gated on CD4^+ T cells. D: IL-6 staining of gated CD4^− non-T cells. The proportions in (E) of IL-6^+CD4^+CD45RO^+ T cells were 2.2%, 5.3% and 7.1%, and of IL-6^+CD4^+CD45RO^− T cells were 0.8%, 2.1% and 4% in response to incubation with no peptide, citrullinated fibrinogen and citrullinated aggrecan respectively. Two individual RA patients and 1 healthy control are shown. Data are representative of 2 healthy donors and 5 RA patients.\nIL-6 is an important cytokine in RA, which could be produced upon stimulation of PBMC either by T cells or antigen presenting cells. To determine the origin of the cytokines secreted into supernatants of PBMC stimulated by citrullinated peptides, RA PBMC were incubated with citrullinated or native peptides for 5 days, with addition of Brefeldin-A for the last 18 hours, prior to intracellular cytokine staining along with analysis of cell surface markers. CD3^+CD4^+ T cells produced more intra-cellular IFN-γ and IL-6 when incubated with citrullinated aggrecan or fibrinogen relative to incubation in medium alone (FIG. 6A, B). […] In healthy controls, CD28^− cells comprised only a small proportion of the CD4^+ T cells, and cytokine-secreting cells were exclusively CD4^+CD28^+. CD28^− cells were more abundant among CD4^+ PB T cells in some, but not all, RA patients. Where CD4^+CD28^− T cells were present, IL-6 and IFN-γ were secreted by both CD28^− and CD28^+CD4^+ T cells in response to citrullinated peptides. […] IFN-γ^+CD4^+ and IL-6^+CD4^+ T cells included both CD45RO^+ and CD45RO^− cells (FIG. 6E).\nPBMC from SE^+ RA patients or healthy controls were incubated with or without peptides at concentrations of 3 and 30 μg/mL for 5 days, with Brefeldin A (Sigma Aldrich) added for the final 18 hours. Cells were stained for CD3-FITC, CD4-APC/Cy7, CD28-FITC, CXCR5-PerCP/Cy5.5 and CD45RO-PerCP/Cy5.5 (Biolegend), followed by permeabilization and staining for intracellular IL-6-APC and IFN-γ-APC (Biolegend). Data were collected on the Gallios flow cytometer and analysed using Kaluza software (Beckman Coulter)."}, "PBMC or SFMC": {"system": "PBMC or SFMC", "format": "cell-based, human"}, "[3]": {"details": "RA PBMC, 5 days, Brefeldin-A last 18 hours"}}, "note": "Where a SMILES comes first, the peptide text is derived from it. Where no end group is shown, it is not given here. [ ]: non-standard residue; d: D form. Cit = NC(=O)NCCC[C@H](N)C(=O)O", "data": [{"compound": "Cc1ccc(S(=O)(=O)/C=C/C#N)cc1", "note": "[Bay11-7082, E3((4-methylphenyl)-sulfonyl)-2-propenenitrile]", "values": [{"measurement": "capacity of APC presenting cit-peptide to induce T cell IL-6 production", "setting": "[1]", "result": "partially suppressed"}]}, {"compound": "CC(C)C[C@H](NC(=O)[C@H](CC(C)C)NC(=O)[C@@H](NC(=O)[C@@H](N)C(C)C)C(C)C)C(=O)N[C@H](C(=O)N[C@@H](C)C(=O)N[C@H](C(=O)N[C@@H](CCC(=O)O)C(=O)NCC(=O)N[C@@H](CCCNC(N)=O)C(=O)N[C@H](C(=O)N[C@@H](CCCNC(=N)N)C(=O)N[C@H](C(=O)N[C@@H](CC(N)=O)C(=O)N[C@@H](CO)C(=O)N[C@@H](C)C(=O)N[C@@H](Cc1ccc(O)cc1)C(=O)N[C@@H](CCC(N)=O)C(=O)N[C@@H](CC(=O)O)C(=O)N[C@@H](CCCCN)C(=O)O)C(C)C)C(C)C)[C@@H](C)O)C(C)C", "note": "[citrullinated aggrecan, VVLLVATEGCitVRVNSAYQDK] (HELM PEPTIDE1{V.V.L.L.V.A.T.E.G.[Cit].V.R.V.N.S.A.Y.Q.D.K}$$$$V2.0; N-terminus and C-terminus assumed)", "values": [{"measurement": "solubility in aqueous medium", "setting": "[2]", "result": "relatively insoluble in aqueous medium"}]}, {"compound": "QDFIN[Cit]INKLKNS [citrullinated fibrinogen]", "values": [{"measurement": "healthy controls whose PBMC dose-dependently secreted IL-6", "setting": "PBMC; 6 SE+ healthy controls", "result": "3/6"}, {"measurement": "cytokine responses to the epitope", "setting": "PBMC", "result": "robust cytokine production"}, {"measurement": "number of RA patients with positive IL-6 response to this epitope only", "setting": "PBMC", "result": 0}, {"measurement": "proportion of IL-6+CD4+CD45RO- T cells", "setting": "CD4+ T cells; 30 μg/ml peptide, no peptide 0.8%", "result": 2.1, "unit": "%"}, {"measurement": "proportion of IL-6+CD4+CD45RO+ T cells", "setting": "CD4+ T cells; 30 μg/ml peptide, no peptide 2.2%", "result": 5.3, "unit": "%"}, {"measurement": "intra-cellular IFN-γ in CD3+CD4+ T cells relative to medium alone", "setting": "CD4+ T cells; [3]", "result": "more"}, {"measurement": "intra-cellular IL-6 in CD3+CD4+ T cells relative to medium alone", "setting": "CD4+ T cells; [3]", "result": "more"}]}, {"compound": "QYM[Cit]ADQAAGGLR [citrullinated collagen type II]", "values": [{"measurement": "number of RA patients with positive IL-6 response to this epitope only", "setting": "PBMC", "result": 0}]}, {"compound": "SAVRA[Cit]SSVPGVR [citrullinated vimentin 66-78]", "values": [{"measurement": "cytokine responses to the epitope", "setting": "PBMC", "result": "much weaker cytokine responses"}]}, {"compound": "tetanus toxoid", "values": [{"measurement": "Proliferative responses to tetanus toxoid, RA compared with healthy control PBMC", "setting": "PBMC or SFMC", "result": "significantly lower"}]}]}
